What all share (experiment): inhibition of tumour cell growth, NCI panel, 48 h
Test [1] concerns OVCAR-5 ovarian.
For test [2], the system named is CAKI-1 renal.
In test [3] the test system is SR leukemia.
For test [4], the system named is HCT-116 colon.
Test [5] deals with RXF 393 renal.
Test [6] deals with MOLT-4 leukemia.
Test [7] deals with HCC-2998 colon.
Test [8] concerns HL-60(TB) leukemia.
The subject of test [9] is NCI-H226 lung.
The subject of test [10] is NCI/ADR-RES ovarian.

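Five concentrations, 48 hours, 96-well plates. GI50 = concentration required for 50% inhibition of growth. TGI denotes the concentration required for complete inhibition of growth.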 Bounds are passed on as bounds.

`N#CCN1C(=O)c2cc([N+](=O)[O-])cc3cc([N+](=O)[O-])cc(c23)C1=O`: the TGI is 36.1 µM in test [1]; 96.6 µM in test [2]; 12.6 µM in test [3]; over 42.7 µM in test [4]; 21.3 µM in test [5]; over 22.8 µM in [6]. The TGI in test [7] is 29.2 µM; in test [8], over 24.1 µM; in test [9], 49.9 µM.
As for `CC(=O)/C(=C\c1ccccc1O)C(=O)Nc1ccccc1C`, the TGI in test [1] is 37.1 µM; in test [2] it was 63.8 µM; in test [3], 48.1 µM; in [4], over 100 µM; in [5] it was 37.5 µM; in test [6] it was 70.1 µM. Also, the figures for the TGI in test [7], in test [8] and in [9] were 29.3 µM, 41.8 µM and 62.4 µM, respectively.
Regarding `O=C(CN1N=C(c2ccc(F)cc2)CCC1=O)Nc1nc2ccccc2s1`, the GI50 in [1] was 3.39 µM; in test [2], 0.583 µM; in test [4], 46.9 µM; in test [5] it was 5.91 µM; in [6], 7.61 µM; in test [7] it was over 100 µM. Besides, the GI50 in test [8] is 3.68 µM; in [9], 69.7 µM; in [10], over 28.2 µM. The TGI is over 92.1 µM in test [1]; 1.76 µM in test [2]; over 100 µM in test [4]; over 55.9 µM in test [5]; 31.5 µM in [6]; over 100 µM in test [7]. Besides, the TGI in [8] was 19 µM; in test [9], over 100 µM; in test [10], over 100 µM.
In the case of `CSc1ccc(C2=NN(C(C)=O)C(c3ccc(-c4ccc(Cl)cc4)o3)C2)cc1` (stereo unspecified), the GI50 in test [1] was over 100 µM; in test [2], 31.1 µM; in test [4], 18.7 µM; in test [5], 44.6 µM; in test [6] it was 16.4 µM; in test [7], 47.1 µM. In addition, the GI50 is 15.3 µM in test [8], 44.4 µM in [9] and 41.4 µM in test [10]. Further, the TGI was over 100 µM in test [1]; over 100 µM in test [2]; over 100 µM in [4]; over 100 µM in test [5]; 97.3 µM in test [6]; over 100 µM in [7]. The TGI in test [8], in test [9] and in test [10] was over 100 µM throughout.
With `COC(=O)C(C(=O)C(=O)Nc1ccc([N+](=O)[O-])cc1)c1nc2ccc([N+](=O)[O-])cc2[nH]c1=O` (stereo unspecified), the TGI in test [1], in [2], in test [3], in test [4], in [5] and in test [6] was over 100 µM in each case. In addition, the TGI in [7], in test [8] and in [9] was over 100 µM in each case.
Turning to `Cc1cccc(NC(=O)/C(=N\N)C(c2cnc3ccc([N+](=O)[O-])cc3n2)[N+](=O)[O-])c1C` (stereo unspecified), the TGI in test [2], in test [3], in [4], in test [5], in [6] and in [7] was over 100 µM in each case. Further, the TGI in test [8] and in test [9] was over 100 µM in each case.
With `Cn1ccnc1Oc1ccc(Cl)cc1`, the TGI in test [1] is 35.7 µM; in [4] it was 24.3 µM; in [5] it was 37.1 µM; in test [6], 7.01 µM; in [7], 14.9 µM; in test [8] it was 11.1 µM. Besides, the TGI in [9] is 44.3 µM; in test [10] it was 49 µM.
Take `c1cc(N2CCN(c3ccc(C4=NCCCN4)cc3)CC2)ccc1C1=NCCCN1`: the GI50 was over 87.8 µM in test [1]; over 100 µM in test [2]; 50.2 µM in test [4]; over 35.8 µM in test [5]; 19.4 µM in test [6]; 59.3 µM in test [9]. Moreover, in test [10], the GI50 was over 100 µM. For the same molecule, the TGI is over 100 µM in [1]; over 100 µM in [2]; over 100 µM in [4]; over 100 µM in test [5]; over 100 µM in test [6]; over 45.2 µM in test [7]. Besides, the TGI was over 89 µM in test [8], over 100 µM in [9] and over 100 µM in [10].
Consider `C/C(=N\O)c1cccc(Nc2cc(-n3ccnc3)c3ccccc3n2)c1`, for which the GI50 in test [1] is 20.9 µM; in test [2] it was 11.2 µM; in [4] it was 13.9 µM; in test [6] it was 12.6 µM; in test [7], 17.3 µM; in test [9] it was 3.59 µM. Also, the GI50 in [10] is 17.2 µM. The TGI stood at 40.9 µM in test [1]; 32.9 µM in test [2]; 26.8 µM in test [4]; 37.5 µM in test [6]; 31.7 µM in [7]; 20.9 µM in test [9]. In addition, in test [10], the TGI stood at 59.2 µM.
As to `O=c1c2cc(F)ccc2sc2c(NCCCNCCO)nc3ccccc3c12`, the GI50 was 1.61 µM in test [1]; 1.61 µM in test [2]; 1.73 µM in test [4]; 1.49 µM in [5]; 1.69 µM in test [7]; 2 µM in test [8]. Further, the GI50 was 1.5 µM in test [9] and 1.78 µM in test [10]. The TGI was 3.05 µM in [1]; 2.97 µM in [2]; 3.32 µM in test [4]; 2.9 µM in test [5]; 3.34 µM in [7]; 4.02 µM in test [8]. Moreover, the TGI turned out to be 3 µM in [9] and 3.44 µM in test [10].
Take `Oc1cccc2c1NCCC2`: the GI50 in test [1] was 4.35 µM; in [2] it was 2.24 µM; in test [4], 0.1 µM; in test [5], 0.177 µM; in [6] it was 1.27 µM; in test [7] it was 3.67 µM. Further, the GI50 in test [8] was 0.194 µM; in [9], 3.07 µM; in test [10], 1.25 µM. Moreover, the TGI is over 100 µM in test [1]; 16.6 µM in [2]; over 100 µM in [4]; 32.7 µM in [5]; over 100 µM in test [6]; over 89.7 µM in test [7]. The values for the TGI in test [8], in test [9] and in test [10] were 7.84 µM, 35.2 µM and 30.4 µM, respectively.
Take `C[n+]1c2ccccc2nc2c(N)cc(N)cc21`: the GI50 in test [1] was over 100 µM; in test [2], 0.519 µM; in test [4] it was 10.5 µM; in [6] it was 3 µM; in [7], 12.6 µM; in [8] it was 6.39 µM. For the same molecule, the values for the GI50 in test [9] and in test [10] were 8.41 µM and 83.3 µM, respectively. Besides, the TGI was over 100 µM in test [1]; 19 µM in [2]; 83.6 µM in [4]; 22.6 µM in test [6]; 93.2 µM in test [7]; 35.8 µM in [8]. Besides, the TGI in test [9] and in [10] was over 100 µM each time.
Consider `N[C@H](COCc1ccccc1)c1ccccc1`, for which the TGI in test [1] is 87.2 µM; in test [2], 61.2 µM; in [3], 56 µM; in test [4], 61.8 µM; in [5] it was over 72.6 µM; in [6], 45.7 µM. Also, the TGI in test [7] is over 91.7 µM; in [8], 30.8 µM; in [9], 77.5 µM.
`CCOC(=O)c1cc2c(cc1Cl)SC(=Nc1ccccc1)N(S(=O)(=O)c1ccc(Br)s1)S2(=O)=O`: the GI50 in [1] is 22 µM; in test [2], 17.5 µM; in [4], 14.8 µM; in test [5], 2.1 µM; in test [6] it was 4.37 µM; in test [7], 16.7 µM. For the same molecule, the values for the GI50 in [9] and in test [10] were 16.2 µM and 17.5 µM, respectively. In addition, the TGI in [1] turned out to be 50.8 µM; in test [2], 32.8 µM; in [4], 30.8 µM; in test [5], 11.5 µM; in test [6], 17.9 µM; in test [7], 31.6 µM. The TGI in test [9] was 35 µM; in test [10] it was 37.6 µM.
Take `Fc1cccc(F)c1C(Nc1nncs1)Nc1nncs1`: the TGI in [1], in test [2], in test [4], in test [5], in test [7] and in test [9] was over 100 µM throughout. In test [10], this molecule showed a TGI of over 100 µM.
Consider `N#CC1(C#N)C(c2ccccc2)C=CC12OCCCO2` (stereo unspecified), for which the TGI is over 100 µM in test [1]; 74.1 µM in test [2]; over 100 µM in test [3]; over 100 µM in [4]; 49.2 µM in test [5]; 98.1 µM in test [6]. Moreover, the TGI in test [7] is over 100 µM; in test [8], 92.3 µM; in test [9] it was over 100 µM.
Consider `COc1cc2cc(Oc3ccc(NC(=O)c4ccc(Cl)c(Cl)c4)cc3)c(C)nc2cc1OC`, for which the GI50 is over 100 µM in test [1]; 5.96 µM in [2]; 19.6 µM in [3]; 4.26 µM in [4]; 9.66 µM in test [5]; 6.12 µM in test [6]. Besides, the GI50 in [7], in test [8] and in test [9] was over 100 µM in each case. Besides, the TGI in test [1], in [2], in [3], in test [4], in test [5] and in test [6] was over 100 µM each time. The TGI in test [7], in test [8] and in test [9] was over 100 µM each time.
For the molecule `COc1ccc(-c2[nH]c3ccccc3c2CCNS(=O)(=O)c2ccc(C)cc2)cc1`, the TGI in test [1], in test [2], in test [3], in test [4], in [5] and in [6] was over 10 µM throughout. The TGI in test [7], in [8] and in test [9] was over 10 µM throughout.
`O=C(O)c1ccccc1NC(=S)c1ccccc1`: the TGI in test [1] is over 100 µM; in test [2], over 100 µM; in test [4], over 100 µM; in [5], over 100 µM; in [6] it was over 100 µM; in test [7] it was 0.0159 µM. In addition, the TGI in test [8] is 98.3 µM; in test [10], over 100 µM.
As for `C[CH2][Hg][S]c1ccccc1C(=O)O`, the GI50 in test [1] was 1.77 µM; in [2], 0.316 µM; in test [3], 0.444 µM; in test [4], 1.31 µM; in test [6], 2.43 µM; in test [7] it was 1.67 µM. Also, the GI50 in test [8] was 0.314 µM; in test [10] it was 1.94 µM. The TGI in test [1] worked out at 3.26 µM; in [2] it was 1.47 µM; in test [3] it was 3.75 µM; in test [4], 2.58 µM; in test [6], 6.7 µM; in test [7], 3.08 µM. Besides, the results for the TGI in test [8] and in [10] were 1.18 µM and 4.79 µM, respectively.
Turning to `N#CCCNc1nonc1-c1nc2ccccc2n1CC(=O)c1ccc(NC(=O)[C@@H](N)CCCCN)cc1`, the GI50 in test [1] is 0.0644 µM; in test [2] it was 0.061 µM; in [3], 0.025 µM; in test [4], 0.04 µM; in [5], 0.0353 µM; in test [6], 0.0451 µM. Also, the GI50 was 0.0308 µM in test [7] and 0.0317 µM in [8]. Also, the TGI in test [1], in [2], in test [3], in test [4], in test [5] and in [6] was over 100 µM each time. Also, the values for the TGI in test [7] and in test [9] were over 92.2 µM and over 100 µM, respectively.
As for `O=C1C=C(O)C(=Cc2c(O)cc(O)cc2O)C(O)=C1`, the TGI in [1], in [2], in [3], in test [4], in test [5] and in [6] was over 100 µM each time. For the same molecule, the TGI in test [7], in test [8] and in test [9] was over 100 µM throughout.

The values are drawn from PubChem BioAssay (NCI).
